Values belong to the compound of their own block, whether it stands above or below them.
Assays:
Assay in all cases: Competitive isoTOP-ABPP, cell lysates
Format in all cases: binding
[1] = target: T1, UBE2S C118 (Q16763) (Homo sapiens, UniProt Q16763); conditions: 500 μM
T1 sequence (Q16763 1-222): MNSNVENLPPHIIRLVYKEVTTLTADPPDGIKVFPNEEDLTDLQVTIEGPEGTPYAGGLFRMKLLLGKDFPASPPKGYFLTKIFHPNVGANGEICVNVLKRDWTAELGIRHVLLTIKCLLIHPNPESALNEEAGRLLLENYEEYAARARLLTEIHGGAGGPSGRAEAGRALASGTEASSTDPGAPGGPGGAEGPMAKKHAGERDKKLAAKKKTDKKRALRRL

[2] = target: T2, PDIA6 C55 (Q15084) (Homo sapiens, UniProt Q15084)
T2 sequence (Q15084 20-440): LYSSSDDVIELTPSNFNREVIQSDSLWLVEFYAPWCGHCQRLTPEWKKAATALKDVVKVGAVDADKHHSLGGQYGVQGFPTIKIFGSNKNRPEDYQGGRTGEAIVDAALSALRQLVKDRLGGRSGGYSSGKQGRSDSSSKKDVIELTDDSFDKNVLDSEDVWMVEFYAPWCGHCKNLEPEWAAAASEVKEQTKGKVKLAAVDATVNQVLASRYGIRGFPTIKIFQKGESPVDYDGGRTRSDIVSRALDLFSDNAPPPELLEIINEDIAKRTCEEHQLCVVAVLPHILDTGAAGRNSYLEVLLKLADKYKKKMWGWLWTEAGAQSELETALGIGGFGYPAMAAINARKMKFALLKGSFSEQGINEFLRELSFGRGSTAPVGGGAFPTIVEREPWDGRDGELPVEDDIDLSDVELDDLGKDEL

[3] = target: T3, PDIA6 C190 (Q15084) (Homo sapiens, UniProt Q15084)
T3 sequence (Q15084 20-440): T2 sequence (Q15084 20-440)

[4] = target: SMARCC2 C145 (Q8TAQ2) (Homo sapiens, UniProt Q8TAQ2); conditions: 500 μM
[5] = target: XPO1 C528 (O14980) (Homo sapiens, UniProt O14980)
[6] = target: GSTP1 C48 (P09211) (Homo sapiens, UniProt P09211); conditions: for isoTOP-ABPP reactivity ratio, P09211_C48: 500 μm
[7] = target: XPO1 C34 (O14980) (Homo sapiens, UniProt O14980); conditions: for isoTOP-ABPP reactivity ratio, O14980_C34: 500 μm
[8] = target: T4, ACAT1 C119 (P24752) (Homo sapiens, UniProt P24752)
T4 sequence (P24752 34-427): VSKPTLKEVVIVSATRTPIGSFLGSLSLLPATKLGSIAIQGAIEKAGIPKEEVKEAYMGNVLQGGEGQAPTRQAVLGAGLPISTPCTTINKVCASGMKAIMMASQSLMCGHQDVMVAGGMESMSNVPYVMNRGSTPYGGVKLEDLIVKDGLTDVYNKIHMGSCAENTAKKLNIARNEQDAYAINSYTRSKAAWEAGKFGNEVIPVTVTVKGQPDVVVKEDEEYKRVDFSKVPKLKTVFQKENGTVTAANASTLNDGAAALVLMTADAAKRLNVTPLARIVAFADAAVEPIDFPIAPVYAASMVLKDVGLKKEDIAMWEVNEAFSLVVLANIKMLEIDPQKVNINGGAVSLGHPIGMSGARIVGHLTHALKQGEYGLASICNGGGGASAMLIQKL

[9] = target: T5, ACAT1 C126 (P24752) (Homo sapiens, UniProt P24752)
T5 sequence (P24752 34-427): T4 sequence (P24752 34-427)

Chain of GSTP1 C48 (P09211) (P09211 whole entry): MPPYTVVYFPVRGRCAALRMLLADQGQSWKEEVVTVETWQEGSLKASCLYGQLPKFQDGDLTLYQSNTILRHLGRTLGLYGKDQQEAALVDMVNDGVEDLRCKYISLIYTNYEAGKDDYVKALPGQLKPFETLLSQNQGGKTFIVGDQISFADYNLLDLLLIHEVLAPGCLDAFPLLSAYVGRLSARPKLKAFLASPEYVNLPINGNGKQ
Chain of XPO1 C34 (O14980) (O14980 whole entry): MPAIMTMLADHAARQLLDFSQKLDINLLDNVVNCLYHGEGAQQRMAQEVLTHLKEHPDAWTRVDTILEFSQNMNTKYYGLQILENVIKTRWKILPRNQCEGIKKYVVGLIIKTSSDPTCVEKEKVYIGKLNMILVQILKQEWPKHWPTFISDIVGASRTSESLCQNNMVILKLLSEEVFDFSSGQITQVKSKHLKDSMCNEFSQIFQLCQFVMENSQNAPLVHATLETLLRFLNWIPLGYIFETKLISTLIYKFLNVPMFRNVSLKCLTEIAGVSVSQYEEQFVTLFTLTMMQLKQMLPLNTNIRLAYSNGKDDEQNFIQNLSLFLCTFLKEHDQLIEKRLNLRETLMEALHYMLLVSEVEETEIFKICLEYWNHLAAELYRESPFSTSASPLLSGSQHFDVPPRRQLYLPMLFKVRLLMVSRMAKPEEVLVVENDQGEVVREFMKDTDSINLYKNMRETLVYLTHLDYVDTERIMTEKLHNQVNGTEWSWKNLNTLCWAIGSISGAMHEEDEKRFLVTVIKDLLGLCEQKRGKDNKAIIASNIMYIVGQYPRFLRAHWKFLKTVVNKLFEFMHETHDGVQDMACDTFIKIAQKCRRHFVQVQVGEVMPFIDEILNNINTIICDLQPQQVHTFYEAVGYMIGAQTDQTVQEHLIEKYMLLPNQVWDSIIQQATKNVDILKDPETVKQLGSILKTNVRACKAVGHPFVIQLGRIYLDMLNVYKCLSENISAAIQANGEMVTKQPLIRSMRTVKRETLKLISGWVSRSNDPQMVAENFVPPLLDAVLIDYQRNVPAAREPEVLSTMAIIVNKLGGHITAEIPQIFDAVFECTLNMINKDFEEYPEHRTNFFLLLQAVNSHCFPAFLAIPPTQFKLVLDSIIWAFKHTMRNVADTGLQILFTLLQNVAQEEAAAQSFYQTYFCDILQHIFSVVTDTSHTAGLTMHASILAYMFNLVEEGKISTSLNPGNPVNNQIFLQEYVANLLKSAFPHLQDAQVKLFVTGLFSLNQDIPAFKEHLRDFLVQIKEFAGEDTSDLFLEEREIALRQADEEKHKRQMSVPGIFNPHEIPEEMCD
Chain of XPO1 C528 (O14980) (O14980 whole entry): as above
Chain of SMARCC2 C145 (Q8TAQ2) (Q8TAQ2 whole entry): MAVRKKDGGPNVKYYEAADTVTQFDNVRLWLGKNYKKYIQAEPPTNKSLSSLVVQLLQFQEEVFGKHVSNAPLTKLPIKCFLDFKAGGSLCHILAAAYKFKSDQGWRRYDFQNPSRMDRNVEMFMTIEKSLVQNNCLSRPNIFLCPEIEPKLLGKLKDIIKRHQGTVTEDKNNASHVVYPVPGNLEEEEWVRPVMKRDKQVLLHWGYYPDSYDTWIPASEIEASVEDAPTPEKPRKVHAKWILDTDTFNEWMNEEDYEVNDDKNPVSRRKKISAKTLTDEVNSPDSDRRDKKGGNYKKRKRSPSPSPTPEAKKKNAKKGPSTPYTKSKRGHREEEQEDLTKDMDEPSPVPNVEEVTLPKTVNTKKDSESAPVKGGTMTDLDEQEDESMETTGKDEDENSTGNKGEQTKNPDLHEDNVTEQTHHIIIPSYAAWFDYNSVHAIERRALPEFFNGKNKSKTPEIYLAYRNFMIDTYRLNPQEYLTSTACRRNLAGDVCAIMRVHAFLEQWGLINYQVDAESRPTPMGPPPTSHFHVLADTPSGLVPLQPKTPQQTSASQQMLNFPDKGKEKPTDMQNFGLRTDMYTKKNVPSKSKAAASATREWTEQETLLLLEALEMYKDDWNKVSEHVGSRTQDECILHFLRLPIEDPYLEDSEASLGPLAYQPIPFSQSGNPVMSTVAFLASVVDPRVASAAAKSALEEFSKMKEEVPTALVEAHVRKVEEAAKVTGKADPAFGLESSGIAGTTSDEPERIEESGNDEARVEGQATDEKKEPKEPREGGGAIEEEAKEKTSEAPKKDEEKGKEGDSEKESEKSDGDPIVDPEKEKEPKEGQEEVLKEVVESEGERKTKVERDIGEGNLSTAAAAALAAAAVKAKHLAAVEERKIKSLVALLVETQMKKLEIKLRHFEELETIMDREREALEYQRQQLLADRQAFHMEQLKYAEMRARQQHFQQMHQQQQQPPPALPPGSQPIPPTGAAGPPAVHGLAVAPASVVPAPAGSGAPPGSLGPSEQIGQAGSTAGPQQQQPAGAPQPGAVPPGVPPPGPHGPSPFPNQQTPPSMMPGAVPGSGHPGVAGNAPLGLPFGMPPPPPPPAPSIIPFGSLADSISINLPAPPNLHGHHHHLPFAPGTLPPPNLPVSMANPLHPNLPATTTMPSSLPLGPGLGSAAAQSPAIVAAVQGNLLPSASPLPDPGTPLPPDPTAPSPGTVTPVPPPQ

- R value (DMSO/fragment) ([1]; in vitro, MDA-MB-231): 1.3
- R value (DMSO/fragment) ([1]; invitro, ramos): 1.5
- R value (DMSO/fragment) ([2]; 500 μM, in vitro, MDA-MB-231): 17.9
- R value (DMSO/fragment) ([2]; 500 μM, invitro, ramos): 14.9
- R value (DMSO/fragment) ([3]; 500 μM, in vitro, MDA-MB-231): 19.9
- R value (DMSO/fragment) ([3]; 500 μM, invitro, ramos): 13.1
- R value (DMSO/fragment) ([4]; in vitro, MDA-MB-231): 9.7
- R value (DMSO/fragment) ([4]; invitro, ramos): 6.6
- R value (DMSO/fragment) ([5]; 500 μM, in vitro, MDA-MB-231): 20.0
- R value (DMSO/fragment) ([5]; 500 μM, invitro, ramos): 20.0
- R value (DMSO/fragment) ([6]; 500 μM, in vitro, MDA-MB-231): 2.9
- R value (DMSO/fragment) ([6]; 500 μM, invitro, ramos): 1.7
- R value (DMSO/fragment) ([7]; 500 μM, in vitro, MDA-MB-231): 1.4
- R value (DMSO/fragment) ([7]; 500 μM, invitro, ramos): 1.6
- R value (DMSO/fragment) ([8]; 500 μM, in vitro, MDA-MB-231): 2.1
- R value (DMSO/fragment) ([8]; 500 μM, invitro, ramos): 5.3
- R value (DMSO/fragment) ([9]; 500 μM, in vitro, MDA-MB-231): 2.6
- R value (DMSO/fragment) ([9]; 500 μM, invitro, ramos): 2.4
Compound: O=C(CCl)Nc1cc(C(F)(F)F)cc(C(F)(F)F)c1 [compound 3]

- isoTOP-ABPP reactivity ratio, Q15084_C55 ([2]; 500 μm, in-vitro_ramos_231): 0.9
- isoTOP-ABPP reactivity ratio, Q15084_C190 ([3]; 500 μm, in-vitro_ramos_231): 0.9
- isoTOP-ABPP reactivity ratio, O14980_C528 ([5]; 500 μm, in-vitro_ramos): 1.1
- isoTOP-ABPP reactivity ratio, P09211_C48 ([6]; in-vitro_ramos): 1.0
- isoTOP-ABPP reactivity ratio, P09211_C48 ([6]; in-vitro_ramos_231): 0.8
- isoTOP-ABPP reactivity ratio, O14980_C34 ([7]; in-vitro_ramos): 1.1
- isoTOP-ABPP reactivity ratio, O14980_C34 ([7]; in-vitro_ramos_231): 0.8
- isoTOP-ABPP reactivity ratio, P24752_C119 ([8]; 500 μm, in-vitro_ramos_231): 0.8
- isoTOP-ABPP reactivity ratio, P24752_C126 ([9]; 500 μm, in-vitro_ramos): 1.1
Compound: O=C(CCl)N(Cc1ccc(F)cc1)C12CC3CC(CC(C3)C1)C2 [compound 34]

- isoTOP-ABPP ratio Q15084_C55 ([2]; 500 μM, invitro, 231): 1.0
- isoTOP-ABPP ratio, Q15084_C190 ([3]; 500 μM, invitro, 231): 1.1
- isoTOP-ABPP ratio O14980_C528 ([5]; 500 μM, invitro, 231): 0.7
- isoTOP-ABPP ratio, P09211_C48 ([6]; 500 μM, invitro, 231): 1.2
- isoTOP-ABPP ratio, O14980_C34 ([7]; 500 μM, invitro, 231): 1.2
- isoTOP-ABPP ratio P24752_C119 ([8]; 500 μM, invitro, 231): 1.1
- isoTOP-ABPP ratio, P24752_C126 ([9]; 500 μM, invitro, 231): 0.9
Compound: CNS(=O)(=O)C=Cc1ccc2c(ccn2Cc2ccccc2)c1 [compound 6]
